Measurements reported in publication PMC10739591, “mCherry on Top: A Positive Read-Out Cellular Platform for Screening DMD Exon Skipping Xenopeptide–PMO Conjugates” (Bioconjugate Chemistry, 2023).

Tested on: DMD exon 23
Assay: Splicing modulation in vivo (DMD exon 23 skipping, nested RT-PCR ex vivo)
Details: BALB/c mice, i.v., 375 µg PMO, 48 h after injection
Procedure: 6-week-old female BALB/c mice (BALB/cByJRj, Janvier, Le Genest-Saint-Isle, France) were housed in isolated ventilated cages under pathogen-free conditions with a 12 h light/dark interval. The mice were acclimated for 7 days prior to treatments. Water and food were provided ad libitum. For splice switching in the physiological DMD gene, PMO formulations were prepared 48 h before intravenous injection, as described above. The freeze-dried PMO formulations were reconstituted with HBG to obtain a concentration of 375 μg PMO per 150 μL. The mice were randomly divided into three groups (n = 6 for PMO(Ex23)-1395, and n = 5 for free 3′ primary amine-modified PMO(Ex23) and PMO(705)-1395). 150 μL of PMO solution was injected intravenously into a lateral tail vein. 48 h after injection, the mice were euthanized and the brain, spleen, quadriceps femoris muscle, kidneys, liver, lung, and heart were harvested. For stabilization of the mRNA, the organs were incubated in RNAlater solution (Thermo Fisher Scientific, Waltham) overnight at 4 °C and afterward stored at −20 °C. Each organ was manually homogenized using a mortar and pestle and liquid nitrogen. […]
The final PCR products were analyzed by agarose gel electrophoresis (2% agarose gel; 100 V; 2 h). Individual band intensities were quantified and put into relation to the band of full-length DMD-Ex20–24 with a size of 633 bp by using ImageJ software.

PMO(Ex23): PMO GGCCAAACCTCGGCTTACCTGAAAT with 3'-primary amine; targets donor splice site of DMD intron 23 (PMO, 3'-primary amine, chemistry not fully specified)
DMD exon 23 skipping in skeletal muscle (quadriceps femoris): predominant splice-switching activity in the skeletal muscle
